Experimental findings from US5785963A, “Polymeric hydantoin quaternary compounds, methods of making” (Lonza, Inc., priority 1996, dated 1998) are described below.

The test system of the data set is bovine corneas. As to the kind of experiment: BCOP (Bovine Corneal Opacity and Permeability) assay of ocular irritancy. How it is done: A BCOP (Bovine Corneal Opacity and Permeability) assay was carried out on polyhydantoin quat compounds of the invention using a test system developed by Gautheron et al.L, "Bovine Corneal Opacity and Permeability Test: An in Vitro Assay of Ocular Irritancy" Fundamental and Applied Toxicology, 18: 442-449 (1992). The system measures two important properties which are predictive of irritation: corneal opacity and permeability. The following classification system for in vitro scores was used:
from 25.1 to 55=moderate irritant
from 55.1 and above=severe irritant
Two polyhydantoin quaternary compounds, having formulas IV and V, were tested using known antimicrobial compositions, ethanol and a didecyl dimethyl ammonium chloride (Bardac 2250, Lonza Inc., Fair Lawn, N.J.), as controls. The test samples were prepared as 0.1% active solutions in distilled water.
In this test, bovine corneas (from slaughterhouse animals) were mounted between two tissue culture media reservoirs in holders which function both as treatment chambers and as cuvettes for subsequent direct measurement of corneal opacity. […]
After completion of the incubation period, the resultant damage was assessed both by quantitative measurement of opacity change, and by indirect measurement of corneal cell damage as evidenced by increased passage of fluorescein.

In the case of `CCO` [Ethanol, ethanol], the “BCOP SCORE” value is reported as 68.7.
